Common to all, as to format: biochemical
In test [1] the test system is Rabbit Skeletal myofibrils (rabbit psoas muscle). Description: Myofibril ATPase assay (PK/LDH NADH-coupled), skeletal myofibrils. The procedure, abridged: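 Rabbit psoas myofibrils in pCa (PIPES/CaCl2/EGTA, pH 7.0) buffer; ADP coupled via PK/LDH to NADH loss, read at 340 nm every 1.5–2 min for 75 min. Slopes normalized to vehicle (100%) and fit to 4-parameter logistic for EC25, plus EC50 for inhibitors.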

For test [2], the system named is Porcine Atria myofibrils. As to the kind of experiment: Myofibril ATPase assay (PK/LDH NADH-coupled), atria myofibrils. Summed up: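 Porcine atrial myofibril ATPase followed via PK/LDH-coupled NADH depletion, absorbance at 340 nm read every 1.5-2 min over 75 min. Slopes (mAU/min) normalized to vehicle as 100% and fit to a 4-parameter logistic; EC25% derived, plus EC50% for inhibitors.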

In test [3] the target is T1, Porcine Ventricle myofibrils (left ventricle of Yucatan minipigs) (Sus scrofa, UniProt P79293).
T1 construct: Myofibrils from porcine cardiac muscle was isolated from the left ventricle of Yucatan minipigs; tissue Exemplar Genetics; host or cells: left ventricle of Yucatan minipigs
As to the kind of experiment: Myofibril ATPase assay (PK/LDH NADH-coupled), ventricle myofibrils. Summed up: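 Yucatan minipig left-ventricle myofibrils; ATPase measured by PK/LDH-coupled NADH loss at 340 nm, read every 1.5-2 min for 75 min. Slopes normalized to vehicle (100%) and fit to 4-parameter logistic model; EC25 and, for inhibitors, EC50 calculated.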

SMILES strings stand for the structures.

T1 sequence (P79293 whole entry): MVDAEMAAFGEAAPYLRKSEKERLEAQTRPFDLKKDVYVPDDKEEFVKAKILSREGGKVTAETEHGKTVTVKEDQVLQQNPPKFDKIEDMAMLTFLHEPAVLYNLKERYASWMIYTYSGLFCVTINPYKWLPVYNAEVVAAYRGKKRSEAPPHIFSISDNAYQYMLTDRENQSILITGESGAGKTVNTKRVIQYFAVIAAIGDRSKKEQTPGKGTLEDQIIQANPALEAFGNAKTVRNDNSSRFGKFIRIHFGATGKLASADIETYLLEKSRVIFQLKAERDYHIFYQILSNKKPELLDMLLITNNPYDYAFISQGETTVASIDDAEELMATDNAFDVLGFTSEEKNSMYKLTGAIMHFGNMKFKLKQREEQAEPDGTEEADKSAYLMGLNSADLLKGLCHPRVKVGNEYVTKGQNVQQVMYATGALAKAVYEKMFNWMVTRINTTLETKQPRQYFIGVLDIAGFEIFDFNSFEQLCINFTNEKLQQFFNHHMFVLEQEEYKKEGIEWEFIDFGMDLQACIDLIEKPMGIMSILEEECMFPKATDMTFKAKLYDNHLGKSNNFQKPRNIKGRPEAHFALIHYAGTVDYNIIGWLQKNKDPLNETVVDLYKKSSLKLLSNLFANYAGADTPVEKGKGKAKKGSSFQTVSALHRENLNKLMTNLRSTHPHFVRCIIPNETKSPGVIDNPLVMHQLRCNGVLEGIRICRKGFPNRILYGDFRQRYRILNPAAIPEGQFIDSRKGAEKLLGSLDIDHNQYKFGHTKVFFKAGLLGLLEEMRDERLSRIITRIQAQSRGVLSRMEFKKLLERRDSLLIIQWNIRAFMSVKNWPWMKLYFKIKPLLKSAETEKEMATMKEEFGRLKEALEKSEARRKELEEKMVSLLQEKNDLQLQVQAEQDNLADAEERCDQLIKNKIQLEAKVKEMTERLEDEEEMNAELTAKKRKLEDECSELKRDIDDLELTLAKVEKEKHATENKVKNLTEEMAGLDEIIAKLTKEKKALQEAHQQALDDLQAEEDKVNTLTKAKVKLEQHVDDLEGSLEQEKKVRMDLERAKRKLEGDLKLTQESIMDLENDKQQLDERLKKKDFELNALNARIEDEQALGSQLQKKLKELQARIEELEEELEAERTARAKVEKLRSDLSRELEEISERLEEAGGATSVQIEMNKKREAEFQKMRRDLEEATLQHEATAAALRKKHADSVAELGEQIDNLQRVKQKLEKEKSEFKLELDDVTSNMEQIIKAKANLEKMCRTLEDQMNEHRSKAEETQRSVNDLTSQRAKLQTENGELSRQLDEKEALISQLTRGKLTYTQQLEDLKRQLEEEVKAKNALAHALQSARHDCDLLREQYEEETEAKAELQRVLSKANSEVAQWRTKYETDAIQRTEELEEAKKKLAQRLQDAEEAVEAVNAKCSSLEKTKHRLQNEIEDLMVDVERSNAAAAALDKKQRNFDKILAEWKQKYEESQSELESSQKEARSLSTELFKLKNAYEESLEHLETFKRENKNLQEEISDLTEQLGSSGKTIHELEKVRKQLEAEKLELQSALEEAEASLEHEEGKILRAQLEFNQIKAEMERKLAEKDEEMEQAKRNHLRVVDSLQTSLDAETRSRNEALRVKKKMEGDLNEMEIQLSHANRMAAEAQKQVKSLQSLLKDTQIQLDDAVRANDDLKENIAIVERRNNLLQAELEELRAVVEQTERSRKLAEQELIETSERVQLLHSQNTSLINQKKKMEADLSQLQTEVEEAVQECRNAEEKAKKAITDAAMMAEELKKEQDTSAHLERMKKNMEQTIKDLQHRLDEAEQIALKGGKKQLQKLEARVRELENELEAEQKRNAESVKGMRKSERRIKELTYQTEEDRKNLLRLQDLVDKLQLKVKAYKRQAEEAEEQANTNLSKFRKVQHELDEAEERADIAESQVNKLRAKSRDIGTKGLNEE

Take `C[C@H](NC(=O)CN1Cc2c(ccnc2C2CC2)NC1=O)c1ccc(F)cc1F` [Compound N127, 2-[5-Cyclopropyl-2-oxo-1H,4H-pyrido[4,3-d]pyrimidin-3-yl]-N-[(1S)-1-(2,4-difluorophenyl)ethyl]acetamide]: the “Rabbit Psoas IC25” value in test [1] (Table 7) was 293.1 nM. The “Porcine Atria IC25” value in test [2] (Table 7) was determined as 3120 nM. Moreover, the “Porcine Ventricle IC25” value in test [3] (Table 7) turned out to be 73050 nM.

With `N#Cc1ccc([C@@H](CO)NC(=O)CN2Cc3c(ccnc3C#N)NC2=O)c(F)c1` [Compound N31], the “Rabbit Psoas IC25” value in test [1] (Table 7) came out at 53.3 nM. Further, the “Porcine Atria IC25” value in test [2] (Table 7) was found to be 380 nM. The “Porcine Ventricle IC25” value in test [3] (Table 7) is 1237 nM.

As for `O=C(CN1Cc2c(ccc(F)c2F)NC1=O)N[C@@H]1COCc2cc(F)cnc21` [Compound B362], in test [1] (Table 8), the “Rabbit Psoas IC25” value was found to be 520 nM. Moreover, the “Porcine Atria IC25” value in test [2] (Table 8) is 100000 nM. Further, in test [3] (Table 8), the “Porcine Ventricle IC25” value stood at 1040 nM.

For `Cc1nc(C#N)ncc1[C@H](C)NC(=O)CN1Cc2c(ccc(F)c2F)NC1=O` [Compound B2], the “Rabbit Psoas IC25” value in test [1] (Table 8) is 5739 nM. Further, the “Porcine Atria IC25” value in test [2] (Table 8) turned out to be 960 nM. In addition, the “Porcine Ventricle IC25” value in test [3] (Table 8) turned out to be 7734 nM.

Turning to `C[C@H](NC(=O)CN1Cc2nc(C#N)ccc2NC1=O)c1ncc(F)cc1F` [Compound N59], the “Rabbit Psoas IC25” value in test [1] (Table 7) is 100000 nM. Moreover, the “Porcine Atria IC25” value in test [2] (Table 7) worked out at 6800 nM. In addition, in test [3] (Table 7), the “Porcine Ventricle IC25” value is 100000 nM.

On to `Cc1cc(C#N)nnc1[C@H](C)NC(=O)CN1C(=O)Nc2ccc(F)cc2C12CC2` [Compound B329], for which the “Rabbit Psoas IC25” value in test [1] (Table 8) worked out at 130 nM. In addition, the “Porcine Atria IC25” value in test [2] (Table 8) is 200 nM. Further, the “Porcine Ventricle IC25” value in test [3] (Table 8) stood at 420 nM.

`C[C@@H](C(=O)N[C@H](CO)c1ccc(F)cc1F)N1Cc2c(Cl)cccc2NC1=O` [Compound B211]: the “Rabbit Psoas IC25” value in test [1] (Table 8) worked out at 100000 nM. The “Porcine Atria IC25” value in test [2] (Table 8) was 100000 nM. For the same compound, the “Porcine Ventricle IC25” value in test [3] (Table 8) came to 100000 nM.

`C[C@@H](NC(=O)CN1Cc2c(ccc(F)c2F)NC1=O)c1ccc(Cl)cn1` [Compound B93]: the “Rabbit Psoas IC25” value in test [1] (Table 8) came to 11450 nM. Also, the “Porcine Atria IC25” value in test [2] (Table 8) amounted to 1260 nM. Besides, the “Porcine Ventricle IC25” value in test [3] (Table 8) amounted to 5574 nM.

With `C[C@H](NC(=O)CN1Cc2c(ccnc2C(F)(F)F)NC1=O)c1ccc(C#N)cc1F` [Compound N74], the “Rabbit Psoas IC25” value in test [1] (Table 7) was 75.65 nM. For the same compound, the “Porcine Atria IC25” value in test [2] (Table 7) came out at 540 nM. For the same compound, the “Porcine Ventricle IC25” value in test [3] (Table 7) was found to be 1559 nM.

As to `C[C@H](NC(=O)CN1Cc2c(ccc(F)c2F)NC1=O)c1nnc(-c2ccccc2F)s1` [Compound B96], in test [1] (Table 8), the “Rabbit Psoas IC25” value worked out at 21880 nM. Besides, the “Porcine Atria IC25” value in test [2] (Table 8) turned out to be 1910 nM. Further, in test [3] (Table 8), the “Porcine Ventricle IC25” value is 100000 nM.

Turning to `O=C(CN1C(=O)Nc2cccnc2C12CC2)N[C@@H](CO)c1ccc(F)cc1F` [Compound N28], in test [1] (Table 7), the “Rabbit Psoas IC25” value was determined as 281.4 nM. Moreover, in test [2] (Table 7), the “Porcine Atria IC25” value worked out at 410 nM. The “Porcine Ventricle IC25” value in test [3] (Table 7) amounted to 6602 nM.

As for `CC(NC(=O)CN1Cc2c(ccc(F)c2F)NC1=O)c1ncc(C#N)cc1F` (stereo not drawn) [Compound B77], the “Rabbit Psoas IC25” value in test [1] (Table 8) was determined as 48.8 nM. Besides, the “Porcine Atria IC25” value in test [2] (Table 8) was determined as 40 nM. In addition, in test [3] (Table 8), the “Porcine Ventricle IC25” value came to 76.8 nM.

On to `C[C@@H](NC(=O)CN1Cc2cc(F)cc(Cl)c2NC1=O)c1ccc(C#N)cc1F` [Compound B40], for which, in test [1] (Table 8), the “Rabbit Psoas IC25” value amounted to 100000 nM. In addition, in test [2] (Table 8), the “Porcine Atria IC25” value turned out to be 100000 nM. The “Porcine Ventricle IC25” value in test [3] (Table 8) was determined as 17720 nM.

In the case of `C[C@H](NC(=O)CN1C(=O)Nc2ccccc2[C@@H]1C)c1ncc(F)cc1F` [Compound B162], in test [1] (Table 8), the “Rabbit Psoas IC25” value is 703.9 nM. For the same compound, the “Porcine Atria IC25” value in test [2] (Table 8) came out at 52140 nM. In addition, in test [3] (Table 8), the “Porcine Ventricle IC25” value is 100000 nM.

Take `C[C@@H](NC(=O)CN1Cc2c(ccc(F)c2F)NC1=O)c1ncc(C#N)s1` [Compound B280]: the “Rabbit Psoas IC25” value in test [1] (Table 8) was 1080 nM. In addition, the “Porcine Atria IC25” value in test [2] (Table 8) is 610 nM. For the same compound, the “Porcine Ventricle IC25” value in test [3] (Table 8) turned out to be 6550 nM.

The values are drawn from patent US12509431B2, “1,4-dihydroquinazolinone compounds and uses thereof” (Edgewise Therapeutics, Inc., priority 2022, dated 2025).
